Measured values: PubChem BioAssay AID1963834 (Molecular Pharmacology Branch, DTP, NCI, 2024)

Tested on: 873145-292-R-J1-PDC complex spheroid viability
Experiment: Anticancer human tumor 873145-292-R-J1-PDC patient-derived renal clear cell carcinoma cell line growth inhibition [POLQ]
Details: for IC50: curve of first compound; for viability, T/C: stronger effect = lower value
Procedure, shortened: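 PDC + HUVEC + MSC complex spheroids; POLQ inhibitors ± partner drugs; top conc. at/near clinical Cmax, else 10 microM (SN-38 1 microM), half-log dilutions; 37 degrees C, 5% CO2.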

[1] = second compound 0.0316 µM, first compound 0.0316 µM
[2] = second compound 0.0316 µM, first compound 0.1 µM
[3] = second compound 0.0316 µM, first compound 0.316 µM
[4] = second compound 0.0316 µM, first compound 1 µM
[5] = second compound 0.0316 µM, first compound 3.16 µM
[6] = second compound 0.0316 µM, first compound 10 µM
[7] = second compound 0.1 µM, first compound 0.0316 µM
[8] = second compound 0.1 µM, first compound 0.1 µM
[9] = second compound 0.1 µM, first compound 0.316 µM
[10] = second compound 0.1 µM, first compound 1 µM
[11] = second compound 0.1 µM, first compound 3.16 µM
[12] = second compound 0.1 µM, first compound 10 µM
[13] = second compound 0.316 µM, first compound 0.0316 µM
[14] = second compound 0.316 µM, first compound 0.1 µM
[15] = second compound 0.316 µM, first compound 0.316 µM
[16] = second compound 0.316 µM, first compound 1 µM
[17] = second compound 0.316 µM, first compound 3.16 µM
[18] = second compound 0.316 µM, first compound 10 µM
[19] = second compound 1 µM, first compound 0.0316 µM
[20] = second compound 1 µM, first compound 0.1 µM
[21] = second compound 1 µM, first compound 0.316 µM
[22] = second compound 1 µM, first compound 1 µM
[23] = second compound 1 µM, first compound 3.16 µM
[24] = second compound 1 µM, first compound 10 µM
[25] = second compound 3.16 µM, first compound 0.0316 µM
[26] = second compound 3.16 µM, first compound 0.1 µM
[27] = second compound 3.16 µM, first compound 0.316 µM
[28] = second compound 3.16 µM, first compound 1 µM
[29] = second compound 3.16 µM, first compound 3.16 µM
[30] = second compound 3.16 µM, first compound 10 µM
[31] = second compound 10 µM, first compound 0.0316 µM
[32] = second compound 10 µM, first compound 0.1 µM
[33] = second compound 10 µM, first compound 0.316 µM
[34] = second compound 10 µM, first compound 1 µM
[35] = second compound 10 µM, first compound 3.16 µM
[36] = second compound 10 µM, first compound 10 µM
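Note: spheroids exposed to compounds for 7 days before viability readout.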
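Throughout, for viability, T/C: luminescence signal used as surrogate for viable cell content; 100% = DMSO vehicle control viability.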

`CC(C)n1c(=O)n(C)c2cnc3cc(F)c(-c4ccc(OCCCN5CCCCC5)nc4)cc3c21` + Nc1ccc(C#CCN(C(=O)Cc2ncc(C(F)(F)F)cc2C(F)(F)F)c2ccc(F)cc2)nn1 gave an IC50 (second compound 0.0316 µM) of over 10 µM, an IC50 (second compound 0.1 µM) of over 10 µM and an IC50 (second compound 0.316 µM) of over 10 µM. It also gave an IC50 (second compound 1 µM) of over 10 µM, an IC50 (second compound 3.16 µM) of over 10 µM and an IC50 (second compound 10 µM) of over 10 µM. The viability, T/C [1] was 97.1%, the viability, T/C [2] was 106% and the viability, T/C [3] was 97.8%. The viability, T/C [4] was 102%, the viability, T/C [5] was 99.6% and the viability, T/C [6] was 107%. The viability, T/C [7] was 107%, the viability, T/C [8] was 112% and the viability, T/C [9] was 97.1%. The viability, T/C [10] was 108%, the viability, T/C [11] was 93.8% and the viability, T/C [12] was 80.5%. It also gave a viability, T/C [13] of 104%, a viability, T/C [14] of 115% and a viability, T/C [15] of 97%. The viability, T/C [16] was 103%, the viability, T/C [17] was 104% and the viability, T/C [18] was 72.1%. It also gave a viability, T/C [19] of 109%, a viability, T/C [20] of 106% and a viability, T/C [21] of 113%. The viability, T/C [22] was 96%, the viability, T/C [23] was 97% and the viability, T/C [24] was 85.8%. It also gave a viability, T/C [25] of 99.8%, a viability, T/C [26] of 111% and a viability, T/C [27] of 92.4%. The viability, T/C [28] was 102%, the viability, T/C [29] was 101% and the viability, T/C [30] was 86.1%. For the same molecule, the viability, T/C [31] was 110%, the viability, T/C [32] was 101% and the viability, T/C [33] was 108%. The viability, T/C [34] was 107%, the viability, T/C [35] was 104% and the viability, T/C [36] was 86%.

Molecule `CC1COCCN1c1cc(-c2ccnn2C)c2ccnc(-c3ccn[nH]3)c2n1` (centres undefined) + Nc1ccc(C#CCN(C(=O)Cc2ncc(C(F)(F)F)cc2C(F)(F)F)c2ccc(F)cc2)nn1 has an IC50 (second compound 0.0316 µM) of over 10 µM, an IC50 (second compound 0.1 µM) of over 10 µM and an IC50 (second compound 0.316 µM) of over 10 µM. For the same molecule, the IC50 (second compound 1 µM) was 6.51 µM, the IC50 (second compound 3.16 µM) was over 10 µM and the IC50 (second compound 10 µM) was over 10 µM. For the same molecule, the viability, T/C [1] was 87.5%, the viability, T/C [2] was 89.8% and the viability, T/C [3] was 79.2%. It also gave a viability, T/C [4] of 55.6%, a viability, T/C [5] of 56.2% and a viability, T/C [6] of 55.3%. It also gave a viability, T/C [7] of 102%, a viability, T/C [8] of 80.7% and a viability, T/C [9] of 77.7%. It also gave a viability, T/C [10] of 53.8%, a viability, T/C [11] of 57.6% and a viability, T/C [12] of 54.7%. For the same molecule, the viability, T/C [13] was 95.5%, the viability, T/C [14] was 99.1% and the viability, T/C [15] was 70.2%. The viability, T/C [16] was 60.9%, the viability, T/C [17] was 51.7% and the viability, T/C [18] was 53.5%. The viability, T/C [19] was 96.2%, the viability, T/C [20] was 86.9% and the viability, T/C [21] was 78.8%. It also gave a viability, T/C [22] of 58.9%, a viability, T/C [23] of 58.5% and a viability, T/C [24] of 45.9%. The viability, T/C [25] was 88.7%, the viability, T/C [26] was 94.1% and the viability, T/C [27] was 79.1%. For the same molecule, the viability, T/C [28] was 59.7%, the viability, T/C [29] was 49.3% and the viability, T/C [30] was 66.1%. The viability, T/C [31] was 102%, the viability, T/C [32] was 90.1% and the viability, T/C [33] was 80%. For the same molecule, the viability, T/C [34] was 64.6%, the viability, T/C [35] was 55.9% and the viability, T/C [36] was 60.1%.
